Tests used:
[1] = target: IL-17A(FLAG-Tagged): IL-17RA(His-Tagged) (Homo sapiens, UniProt Q16552, K93Q); assay: IL-17A(FLAG-Tagged): IL-17RA(His-Tagged) Binding Disruption Eu-HTRF Assay; details: IL-17A/IL-17RA binding disruption, simple average if tested more than once
Procedure, shortened: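 IC50 comes from a one-site competition fit of the HTRF 665/620 nm ratio. Compound dilutions (2-fold, 22 points) were held 1 h rt with FLAG-tagged IL-17A dimer, then His-tagged IL-17RA plus Eu-cryptate anti-FLAG and D2 anti-His antibodies were added for 2 h rt.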

[2] = system: IL-17A-induced G-CSF production in human normal keratinocyte (NHK); assay: NHK Assay: IL-17A-induced G-CSF production in human normal keratinocytes; assay type: cell-based; details: Homo sapiens, Keratinocyte, 24 h, adult normal human keratinocytes, IL-17A 5 ng/mL, simple average if tested more than once
Procedure, shortened: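 Adult NHK, 3000-4000 cells/well; rhIL-17A + titrated cpd preincubated 1 h rt, then onto cells. Final: IL-17A 5 ng/mL, DMSO 0.2%, 5% FBS. 24 h, 37° C. G-CSF in supernatant by HTRF vs standard curve; IC50. Viability by CellTiter-Glo vs DMSO.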

UniProt Q16552, sequence (Q16552 with tags, fused parts or gaps K93Q): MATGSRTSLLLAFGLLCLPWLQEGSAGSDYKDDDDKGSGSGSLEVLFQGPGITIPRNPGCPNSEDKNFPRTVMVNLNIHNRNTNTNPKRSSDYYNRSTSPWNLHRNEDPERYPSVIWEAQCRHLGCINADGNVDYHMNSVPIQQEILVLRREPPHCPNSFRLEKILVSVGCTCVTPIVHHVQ

SMILES | IC50 [1] [nM] | IC50 [2] [nM]
CC(C)c1nonc1C(=O)N[C@H](c1cn2ncc([C@H](NC(=O)CCC(F)(F)F)C3CC3)cc2n1)C1CCC(F)(F)CC1 [Example 379, N—((S)-(7-((R)-Cyclopropyl(4,4,4-trifluorobutanamido)methyl)imidazo[1,2-b]pyridazin-2-yl)(4,4-difluorocyclohexyl)methyl)-4-isopropyl-1,2,5-oxadiazole-3-carboxamide] | 17 | 30
O=C(CCC(F)(F)F)N[C@@H](c1cnn2cc([C@@H](NC(=O)c3nonc3OC3CC3)C3CCC(F)(F)CC3)nc2c1)C1CC1 [Example 380, 4-Cyclopropoxy-N—((S)-(7-((R)-cyclopropyl(4,4,4-trifluorobutanamido)methyl)imidazo[1,2-b]pyridazin-2-yl)(4,4-difluorocyclohexyl)methyl)-1,2,5-oxadiazole-3-carboxamide] | 48 | 30
O=C(CCC(F)(F)F)N[C@@H](c1cnn2cc([C@@H](NC(=O)c3nonc3C3CC3)C3CCC(F)(F)CC3)nc2c1)C1CC1 [Example 381, 4-Cyclopropyl-N—((S)-(7-((R)-cyclopropyl(4,4,4-trifluorobutanamido)methyl)imidazo[1,2-b]pyridazin-2-yl)(4,4-difluorocyclohexyl)methyl)-1,2,5-oxadiazole-3-carboxamide] | 27 | 31
O=C(CCC(F)(F)F)N[C@@H](c1cnn2cc([C@@H](NC(=O)c3nonc3OCC(F)(F)F)C3CCC(F)(F)CC3)nc2c1)C1CC1 [Example 382, N—((S)-(7-((R)-Cyclopropyl(4,4,4-trifluorobutanamido)methyl)imidazo[1,2-b]pyridazin-2-yl)(4,4-difluorocyclohexyl)methyl)-4-(2,2,2-trifluoroethoxy)-1,2,5-oxadiazole-3-carboxamide] | 51 | 11
O=C(CCC(F)(F)F)N[C@@H](c1cnn2cc([C@@H](NC(=O)c3nonc3OCC(F)F)C3CCC(F)(F)CC3)nc2c1)C1CC1 [Example 383, N—((S)-(7-((R)-Cyclopropyl(4,4,4-trifluorobutanamido)methyl)imidazo[1,2-b]pyridazin-2-yl)(4,4-difluorocyclohexyl)methyl)-4-(2,2-difluoroethoxy)-1,2,5-oxadiazole-3-carboxamide] | 51 | 19
O=C(CCC(F)(F)F)N[C@@H](c1cnn2cc([C@@H](NC(=O)c3nonc3OCCF)C3CCC(F)(F)CC3)nc2c1)C1CC1 [Example 384, N—((S)-(7-((R)-Cyclopropyl(4,4,4-trifluorobutanamido)methyl)imidazo[1,2-b]pyridazin-2-yl)(4,4-difluorocyclohexyl)methyl)-4-(2-fluoroethoxy)-1,2,5-oxadiazole-3-carboxamide] | 66 | 31
O=C(CC1CC(F)(F)C1)N[C@@H](c1cnn2cc([C@@H](NC(=O)c3nonc3COC(F)F)C3CCC(F)(F)CC3)nc2c1)C1CC1 [Example 385, N—((S)-(7-((R)-Cyclopropyl(2-(3,3-difluorocyclobutyl)acetamido)methyl)imidazo[1,2-b]pyridazin-2-yl)(4,4-difluorocyclohexyl)methyl)-4-((difluoromethoxy)methyl)-1,2,5-oxadiazole-3-carboxamide] | 35 | 32
O=C(CC1CC(F)(F)C1)N[C@@H](c1cnn2cc([C@@H](NC(=O)c3nonc3N3CCC3)C3CCC(F)(F)CC3)nc2c1)C1CC1 [Example 386, 4-(Azetidin-1-yl)-N—((S)-(7-((R)-cyclopropyl(2-(3,3-difluorocyclobutyl)acetamido)methyl)imidazo[1,2-b]pyridazin-2-yl)(4,4-difluorocyclohexyl)methyl)-1,2,5-oxadiazole-3-carboxamide] | 69 | 230
CC(C)(F)c1nonc1C(=O)N[C@H](c1cn2ncc([C@H](NC(=O)CCC(F)(F)F)C3CC3)cc2n1)C1CCC(F)(F)CC1 [Example 388, N—((S)-(7-((R)-Cyclopropyl(4,4,4-trifluorobutanamido)methyl)imidazo[1,2-b]pyridazin-2-yl)(4,4-difluorocyclohexyl)methyl)-4-(2-fluoropropan-2-yl)-1,2,5-oxadiazole-3-carboxamide] | 85 | 100
O=C(CC1CC(F)(F)C1)N[C@@H](c1cnn2cc([C@@H](NC(=O)c3nonc3OCC(F)F)C3CCC(F)(F)CC3)nc2c1)C1CC1 [Example 389, N—((S)-(7-((R)-Cyclopropyl(2-(3,3-difluorocyclobutyl)acetamido)methyl)imidazo[1,2-b]pyridazin-2-yl)(4,4-difluorocyclohexyl)methyl)-4-(2,2-difluoroethoxy)-1,2,5-oxadiazole-3-carboxamide] | 56 | 29
O=C(CCC(F)F)N[C@@H](c1cnn2cc([C@@H](NC(=O)c3nonc3OCC(F)F)C3CCC(F)(F)CC3)nc2c1)C1CC1 [Example 390, N—((S)-(7-((R)-Cyclopropyl(4,4-difluorobutanamido)methyl)imidazo[1,2-b]pyridazin-2-yl)(4,4-difluorocyclohexyl)methyl)-4-(2,2-difluoroethoxy)-1,2,5-oxadiazole-3-carboxamide] | 86 | 130
CCOc1nonc1C(=O)N[C@H](c1cn2ncc([C@H](NC(=O)CC3CC(F)(F)C3)C3CC3)cc2n1)C1CCC(F)(F)CC1 [Example 391, N—((S)-(7-((R)-Cyclopropyl(2-(3,3-difluorocyclobutyl)acetamido)methyl)imidazo[1,2-b]pyridazin-2-yl)(4,4-difluorocyclohexyl)methyl)-4-ethoxy-1,2,5-oxadiazole-3-carboxamide] | 43 | 47
O=C(CC1CC(F)(F)C1)N[C@@H](c1cnn2cc([C@@H](NC(=O)c3nonc3C3(O)CCCC3)C3CCC(F)(F)CC3)nc2c1)C1CC1 [Example 393, N—((S)-(7-((R)-Cyclopropyl(2-(3,3-difluorocyclobutyl)acetamido)methyl)imidazo[1,2-b]pyridazin-2-yl)(4,4-difluorocyclohexyl)methyl)-4-(1-hydroxycyclopentyl)-1,2,5-oxadiazole-3-carboxamide] | 94 | 120
CC(C)(O)Cc1nonc1C(=O)N[C@H](c1cn2ncc([C@H](NC(=O)CC3CC(F)(F)C3)C3CC3)cc2n1)C1CCC(F)(F)CC1 [Example 394, N—((S)-(7-((R)-Cyclopropyl(2-(3,3-difluorocyclobutyl)acetamido)methyl)imidazo[1,2-b]pyridazin-2-yl)(4,4-difluorocyclohexyl)methyl)-4-(2-hydroxy-2-methylpropyl)-1,2,5-oxadiazole-3-carboxamide] | 200 | 240
O=C(CC1CC(F)(F)C1)N[C@@H](c1cnn2cc([C@@H](NC(=O)c3nocc3C3CC3)C3CCC(F)(F)CC3)nc2c1)C1CC1 [Example 403, 4-Cyclopropyl-N—((S)-(7-((R)-cyclopropyl(2-(3,3-difluorocyclobutyl)acetamido)methyl)imidazo[1,2-b]pyridazin-2-yl)(4,4-difluorocyclohexyl)methyl)isoxazole-3-carboxamide] | 63 | 170
